Measured values taken from ChEMBL document CHEMBL1201861, “Genomics of Drug Sensitity in Cancer screening data, Wellcome Trust Sanger Institute”.

Columns and labels:
Test in all cases: cells
LC4-1 = format: functional, cell-based, Homo sapiens; conditions: Homo sapiens, LC4-1;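 note: growth inhibition of LC4-1 cells, read out with a cell viability assay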
Description: SANGER: Inhibition of human LC4-1 cell growth in a cell viability assay.

KMOE-2 = format: functional, cell-based, Homo sapiens; conditions: Homo sapiens, KMOE-2;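 note: growth inhibition of human KMOE-2 cells, read out with a cell viability assay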
Description: SANGER: Inhibition of human KMOE-2 cell growth in a cell viability assay.

K052 = format: functional, cell-based, Homo sapiens; conditions: Homo sapiens, K052;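 note: Read-out from a cell viability assay, IC50 reflecting suppression of K052 cell growth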
Description: SANGER: Inhibition of human K052 cell growth in a cell viability assay.

NCI-H510A = format: functional, cell-based, Homo sapiens; conditions: Homo sapiens, NCI-H510A;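 note: growth inhibition of NCI-H510A cells, read out with a cell viability assay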
Description: SANGER: Inhibition of human NCI-H510A cell growth in a cell viability assay.

SR = format: functional, cell-based, Homo sapiens; conditions: Homo sapiens, SR
Description: SANGER: Inhibition of human SR cell growth in a cell viability assay.

HC-1 = format: functional, cell-based, Homo sapiens; conditions: Homo sapiens, HC-1;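 note: growth inhibition of HC-1 cells measured by a cell viability assay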
Description: SANGER: Inhibition of human HC-1 cell growth in a cell viability assay.

KMS-12-PE = format: functional, cell-based, Homo sapiens; conditions: Homo sapiens, KMS-12-PE;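 note: growth inhibition of human KMS-12-PE cells, measured with a cell viability assay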
Description: SANGER: Inhibition of human KMS-12-PE cell growth in a cell viability assay.

THP-1 = format: functional, cell-based, Homo sapiens; conditions: Homo sapiens, THP-1;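 note: growth inhibition of THP-1 cells, read out via a cell viability assay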
Description: SANGER: Inhibition of human THP-1 cell growth in a cell viability assay.

NB7 = format: functional, cell-based, Homo sapiens; conditions: Homo sapiens, NB7;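 note: growth inhibition of NB7 cells, read out with a cell viability assay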
Description: SANGER: Inhibition of human NB7 cell growth in a cell viability assay.

MDA-MB-134-VI = format: functional, cell-based, Homo sapiens; conditions: Homo sapiens, MDA-MB-134-VI
Description: SANGER: Inhibition of human MDA-MB-134-VI cell growth in a cell viability assay.

EHEB = format: functional, cell-based; conditions: Homo sapiens;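 note: growth inhibition of human EHEB cells, read out with a cell viability assay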
Description: SANGER: Inhibition of human EHEB cell growth in a cell viability assay.

NCI-H716 = format: functional, cell-based, Homo sapiens; conditions: Homo sapiens, NCI-H716;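 note: growth inhibition of human NCI-H716 cells, measured by a cell viability assay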
Description: SANGER: Inhibition of human NCI-H716 cell growth in a cell viability assay.

NCI-H1436 = format: functional, cell-based, Homo sapiens; conditions: Homo sapiens, NCI-H1436;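 note: growth suppression of human NCI-H1436 cells, determined with a cell viability readout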
Description: SANGER: Inhibition of human NCI-H1436 cell growth in a cell viability assay.

P31-FUJ = format: functional, cell-based, Homo sapiens; conditions: Homo sapiens, P31-FUJ;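 note: growth inhibition of P31-FUJ cells, read out with a viability assay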
Description: SANGER: Inhibition of human P31-FUJ cell growth in a cell viability assay.

U-118-MG = format: functional, cell-based; conditions: Homo sapiens
Description: SANGER: Inhibition of human U-118-MG cell growth in a cell viability assay.

CAL-51 = format: functional, cell-based; conditions: Homo sapiens;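 note: human CAL-51 cell line, growth inhibition read out via a cell viability assay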
Description: SANGER: Inhibition of human CAL-51 cell growth in a cell viability assay.

GAMG = format: functional, cell-based; conditions: Homo sapiens;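 note: cell growth inhibition measured by a viability assay in the GAMG human cell line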
Description: SANGER: Inhibition of human GAMG cell growth in a cell viability assay.

PANC-03-27 = format: functional, cell-based; conditions: Homo sapiens
Description: SANGER: Inhibition of human PANC-03-27 cell growth in a cell viability assay.

PANC-08-13 = format: functional, cell-based; conditions: Homo sapiens;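 note: cell growth inhibition, measured with a cell viability assay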
Description: SANGER: Inhibition of human PANC-08-13 cell growth in a cell viability assay.

BCPAP = format: functional, cell-based; conditions: Homo sapiens;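 note: growth inhibition of BCPAP cells, read out in a cell viability assay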
Description: SANGER: Inhibition of human BCPAP cell growth in a cell viability assay.

SW48 = format: functional, cell-based; conditions: Homo sapiens;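 note: growth inhibition of SW48 cells, read out with a cell viability assay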
Description: SANGER: Inhibition of human SW48 cell growth in a cell viability assay.

SBC-5 = format: functional, cell-based; conditions: Homo sapiens;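 note: cell viability assay read-out, IC50 is the concentration that inhibits growth of the cells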
Description: SANGER: Inhibition of human SBC-5 cell growth in a cell viability assay.

SK-MEL-24 = format: functional, cell-based; conditions: Homo sapiens;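 note: growth inhibition read out by a cell viability assay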
Description: SANGER: Inhibition of human SK-MEL-24 cell growth in a cell viability assay.

8305C = format: functional, cell-based; conditions: Homo sapiens
Description: SANGER: Inhibition of human 8305C cell growth in a cell viability assay.

CHP-212 = format: functional, cell-based; conditions: Homo sapiens
Description: SANGER: Inhibition of human CHP-212 cell growth in a cell viability assay.

COLO-741 = format: functional, cell-based; conditions: Homo sapiens
Description: SANGER: Inhibition of human COLO-741 cell growth in a cell viability assay.

COLO-678 = format: functional, cell-based; conditions: Homo sapiens
Description: SANGER: Inhibition of human COLO-678 cell growth in a cell viability assay.

SW1710 = format: functional, cell-based; conditions: Homo sapiens;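 note: growth inhibition of SW1710 cells, determined with a cell viability assay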
Description: SANGER: Inhibition of human SW1710 cell growth in a cell viability assay.

HLE = format: functional, cell-based; conditions: Homo sapiens;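 note: growth inhibition of human HLE cells, read out by a cell viability assay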
Description: SANGER: Inhibition of human HLE cell growth in a cell viability assay.

JEG-3 = format: functional, cell-based; conditions: Homo sapiens;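 note: growth inhibition of human JEG-3 cells, read out with a cell viability assay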
Description: SANGER: Inhibition of human JEG-3 cell growth in a cell viability assay.

CAL-12T = format: functional, cell-based; conditions: Homo sapiens;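 note: growth inhibition of human CAL-12T cells, read out with a cell viability assay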
Description: SANGER: Inhibition of human CAL-12T cell growth in a cell viability assay.

MCF7 = format: functional, cell-based; conditions: Homo sapiens;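 note: growth inhibition of human MCF7 cells, read out with a cell viability assay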
Description: SANGER: Inhibition of human MCF7 cell growth in a cell viability assay.

FTC-133 = format: functional, cell-based; conditions: Homo sapiens
HCC38 = format: functional, cell-based; conditions: Homo sapiens;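 note: cell viability assay on the human HCC38 cell line, with IC50 marking the concentration that inhibits cell growth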
Description: SANGER: Inhibition of human HCC38 cell growth in a cell viability assay.

NCI-H2228 = format: functional, cell-based; conditions: Homo sapiens;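 note: growth inhibition of human NCI-H2228 cells, read out by a cell viability assay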
Description: SANGER: Inhibition of human NCI-H2228 cell growth in a cell viability assay.

IGROV-1 = format: functional, cell-based; conditions: Homo sapiens;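 note: reduction of IGROV-1 cell growth, read out with a viability assay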
Description: SANGER: Inhibition of human IGROV-1 cell growth in a cell viability assay.

BFTC-905 = format: functional, cell-based; conditions: Homo sapiens
Description: SANGER: Inhibition of human BFTC-905 cell growth in a cell viability assay.

DU-145 = format: functional, cell-based; conditions: Homo sapiens
Description: SANGER: Inhibition of human DU-145 cell growth in a cell viability assay.

OVCAR-3 = format: functional, cell-based; conditions: Homo sapiens;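 note: growth inhibition of human OVCAR-3 cells, determined by a cell viability assay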
Description: SANGER: Inhibition of human OVCAR-3 cell growth in a cell viability assay.

KYSE-150 cell line = format: functional, cell-based; conditions: Homo sapiens;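 note: growth inhibition of human KYSE-150 cells, read out with a cell viability assay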
Description: SANGER: Inhibition of human KYSE-150 cell growth in a cell viability assay.

CP50-MEL-B = format: functional, cell-based; conditions: Homo sapiens;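 note: growth inhibition of the human cell line, measured with a cell viability read-out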
Description: SANGER: Inhibition of human CP50-MEL-B cell growth in a cell viability assay.

647-V = format: functional, cell-based; conditions: Homo sapiens;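 note: growth inhibition of 647-V cells, read out with a cell viability assay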
Description: SANGER: Inhibition of human 647-V cell growth in a cell viability assay.

NY = format: functional, cell-based; conditions: Homo sapiens
Description: SANGER: Inhibition of human NY cell growth in a cell viability assay.

SAOS-2 = format: functional, cell-based; conditions: Homo sapiens;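 note: growth inhibition of human Saos-2 cells determined by a cell viability assay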
Description: SANGER: Inhibition of human Saos-2 cell growth in a cell viability assay.

HOS = format: functional, cell-based; conditions: Homo sapiens;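 note: growth inhibition of human HOS cells, read out with a cell viability assay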
Description: SANGER: Inhibition of human HOS cell growth in a cell viability assay.

HCC1954 = format: functional, cell-based; conditions: Homo sapiens;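 note: growth inhibition of human HCC1954 cells, read out with a cell viability assay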
Description: SANGER: Inhibition of human HCC1954 cell growth in a cell viability assay.

NCI-H2030 = format: functional, cell-based; conditions: Homo sapiens;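 note: growth inhibition of human NCI-H2030 cells, read out by a cell viability assay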
Description: SANGER: Inhibition of human NCI-H2030 cell growth in a cell viability assay.

OE19 = format: functional, cell-based; conditions: Homo sapiens;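 note: growth inhibition of OE19 cells, measured through a cell viability read-out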
Description: SANGER: Inhibition of human OE19 cell growth in a cell viability assay.

RPMI-2650 = format: functional, cell-based; conditions: Homo sapiens
Description: SANGER: Inhibition of human RPMI-2650 cell growth in a cell viability assay.

786-0 = format: functional, cell-based; conditions: Homo sapiens
Description: SANGER: Inhibition of human 786-0 cell growth in a cell viability assay.

CHL-1 = format: functional, cell-based; conditions: Homo sapiens;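 note: cell growth inhibition, read out with a cell viability assay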
Description: SANGER: Inhibition of human CHL-1 cell growth in a cell viability assay.

UO-31 = format: functional, cell-based; conditions: Homo sapiens;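 note: cell viability assay measuring inhibition of cell growth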
Description: SANGER: Inhibition of human U031 cell growth in a cell viability assay.

MG-63 = format: functional, cell-based; conditions: Homo sapiens;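 note: growth inhibition of human MG-63 cells, read out with a cell viability assay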
Description: SANGER: Inhibition of human MG-63 cell growth in a cell viability assay.

BFTC-909 = format: functional, cell-based; conditions: Homo sapiens
Description: SANGER: Inhibition of human BFTC-909 cell growth in a cell viability assay.

HuCCT-1 = format: functional, cell-based, HuCCT1; conditions: Homo sapiens;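 note: growth inhibition of HuCCT-1 cells, read out by a cell viability assay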
Description: SANGER: Inhibition of human HuCCT1 cell growth in a cell viability assay.

NCI-H1793 = format: functional, cell-based; conditions: Homo sapiens;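 note: cell growth inhibition, read out by a cell viability assay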
Description: SANGER: Inhibition of human NCI-H1793 cell growth in a cell viability assay.

HCC1569 = format: functional, cell-based; conditions: Homo sapiens;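 note: growth inhibition of human HCC1569 cells, read out with a cell viability assay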
Description: SANGER: Inhibition of human HCC1569 cell growth in a cell viability assay.

Ca-Ski = format: functional, cell-based; conditions: Homo sapiens;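 note: cell viability assay measuring inhibition of Ca-Ski cell growth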
Description: SANGER: Inhibition of human Ca-Ski cell growth in a cell viability assay.

HN = format: functional, cell-based; conditions: Homo sapiens
Description: SANGER: Inhibition of human HN cell growth in a cell viability assay.

NCI-H1623 = format: functional, cell-based; conditions: Homo sapiens;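 note: cell viability assay used as the read-out for growth inhibition of NCI-H1623 cells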
Description: SANGER: Inhibition of human NCI-H1623 cell growth in a cell viability assay.

T47D = format: functional, cell-based; conditions: Homo sapiens;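 note: growth inhibition of human T47D cells, measured with a cell viability assay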
Description: SANGER: Inhibition of human T47D cell growth in a cell viability assay.

**Q.** Which IC50 (LC4-1) does the source give for `C=CC(=O)N1CCCC(Nc2nc(Nc3ccc(N(C)C(=O)CC)cc3)nc3[nH]cnc23)C1` (configuration not stated) here?
**A.** > 10.2 µM

**Q.** What about the IC50 (KMOE-2) of the same compound?
**A.** > 10.2 µM

**Q.** What about the IC50 (K052) of the same compound?
**A.** > 10.2 µM

**Q.** And the IC50 (NCI-H510A)?
**A.** > 10.2 µM

**Q.** And the IC50 (SR)?
**A.** > 10.2 µM

**Q.** And the IC50 (HC-1)?
**A.** > 10.2 µM

**Q.** And the IC50 (KMS-12-PE)?
**A.** > 10.2 µM

**Q.** And the IC50 (THP-1)?
**A.** > 10.2 µM

**Q.** What about the IC50 (NB7) of the same compound?
**A.** > 10.2 µM

**Q.** What about the IC50 (MDA-MB-134-VI) of the same compound?
**A.** > 10.2 µM

**Q.** And the IC50 (EHEB)?
**A.** > 10.2 µM

**Q.** What about the IC50 (NCI-H716) of the same compound?
**A.** > 10.2 µM

**Q.** What about the IC50 (NCI-H1436) of the same compound?
**A.** > 10.2 µM

**Q.** What about the IC50 (P31-FUJ) of the same compound?
**A.** > 10.2 µM

**Q.** Which IC50 (LC4-1) does the source give for `COc1ccc(N(C(=O)Oc2c(C)cccc2C)c2ccnc(Nc3ccc(N4CCN(C)CC4)cc3)n2)c(OC)c1` here?
**A.** > 5.12 µM

**Q.** What about the IC50 (KMOE-2) of the same compound?
**A.** > 5.12 µM

**Q.** What about the IC50 (K052) of the same compound?
**A.** > 5.12 µM

**Q.** What about the IC50 (NCI-H510A) of the same compound?
**A.** > 5.12 µM

**Q.** And the IC50 (SR)?
**A.** > 5.12 µM

**Q.** And the IC50 (HC-1)?
**A.** > 5.12 µM

**Q.** What about the IC50 (KMS-12-PE) of the same compound?
**A.** > 5.12 µM

**Q.** What about the IC50 (THP-1) of the same compound?
**A.** > 5.12 µM

**Q.** And the IC50 (NB7)?
**A.** > 5.12 µM

**Q.** What about the IC50 (MDA-MB-134-VI) of the same compound?
**A.** > 5.12 µM

**Q.** What about the IC50 (EHEB) of the same compound?
**A.** > 5.12 µM

**Q.** And the IC50 (NCI-H716)?
**A.** > 5.12 µM

**Q.** And the IC50 (NCI-H1436)?
**A.** > 5.12 µM

**Q.** And the IC50 (P31-FUJ)?
**A.** > 5.12 µM

**Q.** With `Cc1cc(N2CCOCC2)cc2[nH]c(-c3c(NC[C@@H](O)c4cccc(Cl)c4)cc[nH]c3=O)nc12` as the compound, how does the IC50 (LC4-1) read?
**A.** > 5.12 µM

**Q.** And the IC50 (KMOE-2)?
**A.** > 5.12 µM

**Q.** What about the IC50 (K052) of the same compound?
**A.** > 5.12 µM

**Q.** And the IC50 (NCI-H510A)?
**A.** > 5.12 µM

**Q.** What about the IC50 (SR) of the same compound?
**A.** 2.05 µM

**Q.** What about the IC50 (HC-1) of the same compound?
**A.** > 5.12 µM

**Q.** What about the IC50 (KMS-12-PE) of the same compound?
**A.** > 5.12 µM

**Q.** What about the IC50 (THP-1) of the same compound?
**A.** > 5.12 µM

**Q.** And the IC50 (NB7)?
**A.** > 5.12 µM

**Q.** And the IC50 (MDA-MB-134-VI)?
**A.** > 5.12 µM

**Q.** And the IC50 (EHEB)?
**A.** > 5.12 µM

**Q.** And the IC50 (NCI-H716)?
**A.** > 5.12 µM

**Q.** What about the IC50 (NCI-H1436) of the same compound?
**A.** > 5.12 µM

**Q.** And the IC50 (P31-FUJ)?
**A.** > 5.12 µM

**Q.** With `O=S(=O)(O)c1ccc2cc(/N=N/c3cc(S(=O)(=O)O)c4cccnc4c3O)ccc2c1` as the compound, how does the IC50 (U-118-MG) read?
**A.** > 16 µM

**Q.** What about the IC50 (LC4-1) of the same compound?
**A.** > 16 µM

**Q.** What about the IC50 (CAL-51) of the same compound?
**A.** 9.36 µM

**Q.** What about the IC50 (KMOE-2) of the same compound?
**A.** > 16 µM

**Q.** And the IC50 (GAMG)?
**A.** > 16 µM

**Q.** What about the IC50 (K052) of the same compound?
**A.** > 16 µM

**Q.** What about the IC50 (PANC-03-27) of the same compound?
**A.** > 16 µM

**Q.** And the IC50 (PANC-08-13)?
**A.** > 16 µM

**Q.** And the IC50 (NCI-H510A)?
**A.** > 16 µM

**Q.** And the IC50 (BCPAP)?
**A.** > 16 µM

**Q.** And the IC50 (SW48)?
**A.** > 16 µM

**Q.** And the IC50 (SR)?
**A.** > 16 µM

**Q.** And the IC50 (HC-1)?
**A.** > 16 µM

**Q.** And the IC50 (SBC-5)?
**A.** > 16 µM

**Q.** And the IC50 (SK-MEL-24)?
**A.** > 16 µM

**Q.** And the IC50 (KMS-12-PE)?
**A.** > 16 µM

**Q.** What about the IC50 (8305C) of the same compound?
**A.** > 16 µM

**Q.** And the IC50 (CHP-212)?
**A.** > 16 µM

**Q.** What about the IC50 (COLO-741) of the same compound?
**A.** > 16 µM

**Q.** What about the IC50 (COLO-678) of the same compound?
**A.** > 16 µM

**Q.** And the IC50 (SW1710)?
**A.** > 16 µM

**Q.** What about the IC50 (HLE) of the same compound?
**A.** > 16 µM

**Q.** What about the IC50 (JEG-3) of the same compound?
**A.** > 16 µM

**Q.** And the IC50 (THP-1)?
**A.** > 16 µM

**Q.** And the IC50 (CAL-12T)?
**A.** > 16 µM

**Q.** What about the IC50 (MCF7) of the same compound?
**A.** > 16 µM

**Q.** And the IC50 (MDA-MB-134-VI)?
**A.** > 16 µM

**Q.** What about the IC50 (FTC-133) of the same compound?
**A.** > 16 µM

**Q.** And the IC50 (HCC38)?
**A.** > 16 µM

**Q.** What about the IC50 (NCI-H2228) of the same compound?
**A.** > 16 µM

**Q.** And the IC50 (IGROV-1)?
**A.** > 16 µM

**Q.** And the IC50 (BFTC-905)?
**A.** > 16 µM

**Q.** And the IC50 (EHEB)?
**A.** > 16 µM

**Q.** What about the IC50 (DU-145) of the same compound?
**A.** > 16 µM

**Q.** What about the IC50 (OVCAR-3) of the same compound?
**A.** > 16 µM

**Q.** And the IC50 (KYSE-150 cell line)?
**A.** > 16 µM

**Q.** What about the IC50 (CP50-MEL-B) of the same compound?
**A.** > 16 µM

**Q.** And the IC50 (647-V)?
**A.** > 16 µM

**Q.** What about the IC50 (NY) of the same compound?
**A.** > 16 µM

**Q.** What about the IC50 (SAOS-2) of the same compound?
**A.** > 16 µM

**Q.** And the IC50 (HOS)?
**A.** > 16 µM

**Q.** What about the IC50 (HCC1954) of the same compound?
**A.** > 16 µM

**Q.** And the IC50 (NCI-H2030)?
**A.** > 16 µM

**Q.** What about the IC50 (OE19) of the same compound?
**A.** > 16 µM

**Q.** And the IC50 (RPMI-2650)?
**A.** > 16 µM

**Q.** What about the IC50 (786-0) of the same compound?
**A.** 5.59 µM

**Q.** And the IC50 (NCI-H716)?
**A.** > 16 µM

**Q.** And the IC50 (CHL-1)?
**A.** > 16 µM

**Q.** And the IC50 (UO-31)?
**A.** 13.6 µM

**Q.** What about the IC50 (MG-63) of the same compound?
**A.** > 16 µM

**Q.** What about the IC50 (NCI-H1436) of the same compound?
**A.** > 16 µM

**Q.** And the IC50 (BFTC-909)?
**A.** > 16 µM

**Q.** What about the IC50 (P31-FUJ) of the same compound?
**A.** > 16 µM

**Q.** What about the IC50 (HuCCT-1) of the same compound?
**A.** > 16 µM

**Q.** What about the IC50 (NCI-H1793) of the same compound?
**A.** > 16 µM

**Q.** What about the IC50 (HCC1569) of the same compound?
**A.** > 16 µM

**Q.** What about the IC50 (Ca-Ski) of the same compound?
**A.** > 16 µM

**Q.** What about the IC50 (HN) of the same compound?
**A.** > 16 µM

**Q.** And the IC50 (NCI-H1623)?
**A.** > 16 µM

**Q.** What about the IC50 (T47D) of the same compound?
**A.** > 16 µM
